Laboratory results reported in the supplement of paper PMC8253809.

Legend:
[1] = test system: SUDIPGXIX (diffuse intrinsic pontine glioma line); experiment: EC50 (inflection of fitted growth-inhibition curve) (log10 M)
Outline: (§1)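 A pin tool was used to add a 10-point threefold dilution series (mean top concentration 35 μM), in triplicate, to patient-derived pHGG/DIPG cell lines and astrocyte controls seeded on 384-well plates coated with 1% Geltrex. After 7 days at 37 °C and 5% CO2 (3 days for iAstro), CellTiter-Glo luminescence was log2-transformed, normalised on each plate to % activity relative to negative (solvent) and positive control wells, and pooled. EC50 and maximal response (yFin) were read from the three- or four-parameter log-logistic fit with the lowest AICc.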

[2] = test system: DIPGX9 (diffuse intrinsic pontine glioma line); experiment: maximal growth inhibition (yFin) relative to DMSO / staurosporine; higher = more efficacious
Outline: as §1

[3] = test system: HGGX2 (paediatric high-grade glioma line); experiment: as above
Outline: as §1

[4] = test system: SUDIPGIV (diffuse intrinsic pontine glioma line); experiment: as above
Outline: as §1

[5] = test system: DIPGX29 (H3.3 K27M diffuse intrinsic pontine glioma line); experiment: as above
Outline: as §1

[6] = test system: HGGX39 (paediatric high-grade glioma line); experiment: as above
Outline: as §1

[7] = test system: SUDIPGXXI (diffuse intrinsic pontine glioma line); experiment: as above
Outline: as §1

[8] = test system: iAstro (astrocyte control); experiment: as above
Outline: as §1

[9] = test system: HGGX42 (H3.3 G34R paediatric high-grade glioma line); experiment: as above
Outline: as §1

[10] = test system: DIPGX7 (H3.3 K27M diffuse intrinsic pontine glioma line); experiment: as above
Outline: as §1

[11] = test system: DIPGX37 (H3.3 K27M diffuse intrinsic pontine glioma line); experiment: as above
Outline: as §1

[12] = test system: SUDIPGXVII (diffuse intrinsic pontine glioma line); experiment: as above
Outline: as §1

[13] = test system: SUDIPGXIX; experiment: as above
Outline: as §1

[14] = test system: HGGX6 (H3.3 G34R paediatric high-grade glioma line); experiment: as above
Outline: as §1

[15] = test system: HABS (astrocyte control); experiment: as above
Outline: as §1

[16] = test system: SUDIPGXIII (diffuse intrinsic pontine glioma line); experiment: as above
Outline: as §1

[17] = test system: SUDIPGVI (diffuse intrinsic pontine glioma line); experiment: as above
Outline: as §1

[18] = test system: HGGX6; experiment: growth inhibition relative to DMSO (0) and positive control (1) (fraction); higher = more growth inhibition
Procedure: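 Paxalisib (GDC0084) x mirdametinib (PD0325901) dose matrix on pHGG cell lines and astrocyte controls, 7 days, adherent 384-well. CellTiter-Glo RLU was normalised (no log2) to fractional activity between DMSO (0) and the positive control (1). Each combination was tested in two plate orientations.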

C=CCn1c(=O)c2cnc(Nc3ccc(N4CCN(C)CC4)cc3)nc2n1-c1cccc(C(C)(C)O)n1 [MK-1775]
Conditions | EC50 (log10 M) | maximal growth inhibition [%]
[1] | -6.03 | –
[2] | – | 41.4
[3] | – | 31
[4] | – | 46.7
[5] | – | 39.2
[6] | – | 43.8
[7] | – | 91.8
[8] | – | 36.6
[9] | – | 34.5
[10] | – | 25
[11] | – | 22.2
[12] | – | 25.1
[13] | – | 37.7
[14] | – | 24.9
[15] | – | 26.7

CCN1CCN(Cc2ccc(Nc3ncc(F)c(-c4cc(F)c5nc(C)n(C(C)C)c5c4)n3)nc2)CC1 [ABEMACICLIB]
Conditions | EC50 (log10 M) | maximal growth inhibition [%]
[1] | -6.26 | –
[2] | – | 43.3
[3] | – | 42.3
[4] | – | 76.8
[5] | – | 38.4
[6] | – | 84.4
[7] | – | 96.9
[8] | – | 59
[9] | – | 30.7
[10] | – | 110
[11] | – | 99.9
[12] | – | 61.1
[13] | – | 110
[14] | – | 69.4
[16] | – | 52.5
[17] | – | 48.9

CN1[C@@H]2CC[C@H]1C[C@@H](OC(=O)c1cc(Cl)cc(Cl)c1)C2 [BEMESETRON]
Conditions | EC50 (log10 M) | maximal growth inhibition [%]
[1] | -4.85 | –
[2] | – | 43.8
[3] | – | 49.4
[4] | – | 77.1
[5] | – | 89.8
[6] | – | 81.4
[7] | – | 104
[8] | – | 36.1
[9] | – | 86.2
[10] | – | 90.5
[11] | – | 102
[12] | – | 44.2
[13] | – | 77.2
[14] | – | 63.8
[15] | – | 20.8

Cc1noc2c1-c1ccccc1C(c1ccc(Cl)cc1)=N[C@H]2CC(N)=O [CPI-0610]
Conditions | EC50 (log10 M) | maximal growth inhibition [%]
[1] | -5.17 | –
[2] | – | 113
[3] | – | 69.1
[4] | – | 75.1
[5] | – | 90.8
[6] | – | 109
[7] | – | 116
[8] | – | 39
[9] | – | 80.1
[10] | – | 116
[12] | – | 63.3
[13] | – | 127
[14] | – | 41.6
[15] | – | 72.8
[17] | – | 106

O=C(NOC[C@H](O)CO)c1ccc(F)c(F)c1Nc1ccc(I)cc1F + CC1(C)OCCn2c1nc1c(N3CCOCC3)nc(-c3cnc(N)nc3)nc12 [GDC0084]
growth inhibition, [18]
Conditions | compound 1 concentration 0.009766 µM | compound 1 concentration 0.01953 µM | compound 1 concentration 0.03906 µM | compound 1 concentration 0.07812 µM | compound 1 concentration 0.15625 µM | compound 1 concentration 0.3125 µM | compound 1 concentration 0.625 µM | compound 1 concentration 1.25 µM | compound 1 concentration 5 µM | compound 1 concentration 20 µM
compound 2 concentration 0.03906 µM | -0.0587 | -0.133 | -0.0423 | -0.0209 | 0.0525 | 0.0544 | 0.136 | 0.172 | 0.433 | 0.608
compound 2 concentration 0.07812 µM | 0.159 | 0.159 | 0.235 | 0.123 | 0.215 | 0.239 | 0.175 | 0.334 | 0.493 | 0.707
compound 2 concentration 0.15625 µM | 0.0791 | 0.129 | 0.0602 | 0.134 | 0.0901 | 0.167 | 0.22 | 0.321 | 0.536 | 0.68
compound 2 concentration 0.3125 µM | 0.217 | 0.19 | 0.195 | 0.14 | 0.172 | 0.319 | 0.322 | 0.391 | 0.572 | 0.713
compound 2 concentration 0.625 µM | 0.371 | 0.37 | 0.329 | 0.373 | 0.258 | 0.373 | 0.432 | 0.457 | 0.633 | 0.748
compound 2 concentration 1.25 µM | 0.572 | 0.523 | 0.53 | 0.483 | 0.467 | 0.501 | 0.53 | 0.544 | 0.679 | 0.799
compound 2 concentration 5 µM | 0.709 | 0.727 | 0.714 | 0.72 | 0.705 | 0.725 | 0.719 | 0.747 | 0.798 | 0.86
compound 2 concentration 20 µM | 0.867 | 0.859 | 0.851 | 0.861 | 0.86 | 0.852 | 0.866 | 0.859 | 0.887 | 0.947

COCC1(CO)C(=O)C2CCN1CC2 (stereo unspecified) [APR-246]
Conditions | EC50 (log10 M) | maximal growth inhibition [%]
[1] | -4.78 | –
[2] | – | 105
[3] | – | 97.9
[4] | – | 105
[5] | – | 106
[7] | – | 112
[8] | – | 90.9
[9] | – | 99.8
[10] | – | 102
[11] | – | 111
[12] | – | 99
[13] | – | 96.4
[14] | – | 90.1
[16] | – | 97.3
[17] | – | 102

CC1(C)OCCn2c1nc1c(N3CCOCC3)nc(-c3cnc(N)nc3)nc12 [GDC0084] + O=C(NOC[C@H](O)CO)c1ccc(F)c(F)c1Nc1ccc(I)cc1F [PD0325901]
growth inhibition, [18]
Conditions | compound 1 concentration 0.009766 µM | compound 1 concentration 0.01953 µM | compound 1 concentration 0.03906 µM | compound 1 concentration 0.07812 µM | compound 1 concentration 0.15625 µM | compound 1 concentration 0.3125 µM | compound 1 concentration 0.625 µM | compound 1 concentration 1.25 µM | compound 1 concentration 5 µM | compound 1 concentration 20 µM
compound 2 concentration 0.03906 µM | -0.0592 | -0.118 | -0.0557 | 0.0473 | 0.0152 | 0.16 | 0.251 | 0.451 | 0.708 | 0.857
compound 2 concentration 0.07812 µM | 0.064 | -0.018 | -0.00542 | 0.0583 | 0.162 | 0.132 | 0.254 | 0.475 | 0.717 | 0.883
compound 2 concentration 0.15625 µM | 0.0118 | 0.0255 | -0.000602 | 0.014 | 0.0815 | 0.2 | 0.302 | 0.466 | 0.711 | 0.857
compound 2 concentration 0.3125 µM | 0.0282 | 0.112 | 0.0905 | 0.102 | 0.124 | 0.205 | 0.31 | 0.505 | 0.707 | 0.865
compound 2 concentration 0.625 µM | 0.155 | 0.263 | 0.16 | 0.217 | 0.212 | 0.336 | 0.371 | 0.511 | 0.733 | 0.849
compound 2 concentration 1.25 µM | 0.226 | 0.235 | 0.284 | 0.245 | 0.295 | 0.368 | 0.424 | 0.564 | 0.776 | 0.841
compound 2 concentration 5 µM | 0.429 | 0.43 | 0.452 | 0.47 | 0.569 | 0.626 | 0.645 | 0.728 | 0.796 | 0.901
compound 2 concentration 20 µM | 0.595 | 0.612 | 0.628 | 0.661 | 0.667 | 0.729 | 0.762 | 0.814 | 0.871 | 0.94
